Results as given in PMC8222254, “Self-assembly of an anion receptor with metal-dependent kinase inhibition and potent in vitro anti-cancer properties” (Nature Communications, 2021).
Values joined by “and” are separate entries in the source; they are usually repeats but may differ in a detail not shown here. Equal values may be shown once.

Key:
Assay in all cases: Kinase inhibition screen, cell-free 33P ATP assay at 10 μM
Assay type in all cases: biochemical
[1] = target: T1, 140 purified human kinases (Homo sapiens, UniProt Q9NZJ5)
T1 sequence (Q9NZJ5 30-1116): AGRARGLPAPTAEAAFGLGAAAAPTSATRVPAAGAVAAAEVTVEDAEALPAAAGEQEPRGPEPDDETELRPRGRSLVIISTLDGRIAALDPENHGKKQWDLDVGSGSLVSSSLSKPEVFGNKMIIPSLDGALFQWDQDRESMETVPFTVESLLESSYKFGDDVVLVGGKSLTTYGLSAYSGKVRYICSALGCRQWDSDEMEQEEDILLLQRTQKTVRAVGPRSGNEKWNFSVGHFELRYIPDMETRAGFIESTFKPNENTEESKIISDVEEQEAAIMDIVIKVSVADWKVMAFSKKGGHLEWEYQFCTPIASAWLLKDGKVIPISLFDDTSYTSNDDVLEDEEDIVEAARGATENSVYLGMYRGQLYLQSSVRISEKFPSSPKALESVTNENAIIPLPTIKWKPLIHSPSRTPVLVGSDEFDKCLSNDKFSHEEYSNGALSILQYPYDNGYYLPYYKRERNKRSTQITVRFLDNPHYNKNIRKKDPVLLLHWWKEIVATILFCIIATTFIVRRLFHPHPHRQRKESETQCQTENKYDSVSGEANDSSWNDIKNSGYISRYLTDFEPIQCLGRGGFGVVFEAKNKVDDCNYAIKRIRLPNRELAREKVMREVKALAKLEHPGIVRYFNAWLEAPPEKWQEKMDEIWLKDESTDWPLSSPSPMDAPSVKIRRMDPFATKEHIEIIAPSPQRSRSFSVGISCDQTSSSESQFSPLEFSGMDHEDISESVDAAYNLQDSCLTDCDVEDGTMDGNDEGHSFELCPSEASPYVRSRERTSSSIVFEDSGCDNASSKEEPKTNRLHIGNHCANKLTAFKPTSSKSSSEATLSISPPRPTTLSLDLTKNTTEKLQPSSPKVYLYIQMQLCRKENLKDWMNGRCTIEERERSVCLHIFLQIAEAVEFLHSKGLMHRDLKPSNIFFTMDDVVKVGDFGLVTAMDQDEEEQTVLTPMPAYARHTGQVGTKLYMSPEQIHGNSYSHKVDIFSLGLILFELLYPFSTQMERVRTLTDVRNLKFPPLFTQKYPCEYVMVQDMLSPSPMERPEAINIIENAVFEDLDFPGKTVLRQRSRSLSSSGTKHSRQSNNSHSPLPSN
Procedure, shortened: (§1)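 Each complex tested in duplicate at 10 μM; cell-free radiometric assay using ^33P ATP on purified enzymes. Hits mapped by HGNC symbol onto the kinome tree.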

[2] = target: T2, 140 purified human kinases (Homo sapiens, UniProt P52564)
T2 sequence (P52564 1-334): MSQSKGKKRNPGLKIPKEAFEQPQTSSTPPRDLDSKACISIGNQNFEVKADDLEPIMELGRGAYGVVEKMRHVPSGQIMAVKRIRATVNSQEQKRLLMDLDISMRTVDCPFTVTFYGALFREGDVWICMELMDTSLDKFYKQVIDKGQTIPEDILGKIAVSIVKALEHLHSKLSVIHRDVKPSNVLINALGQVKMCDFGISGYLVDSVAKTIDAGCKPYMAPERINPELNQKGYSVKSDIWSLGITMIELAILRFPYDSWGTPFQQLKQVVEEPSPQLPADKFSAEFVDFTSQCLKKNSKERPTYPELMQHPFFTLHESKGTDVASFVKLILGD
Procedure, shortened: as §1

[3] = target: 140 purified human kinases (Homo sapiens, UniProt P14616); conditions: IRR
Procedure, shortened: as §1

[4] = target: 140 purified human kinases (Homo sapiens, UniProt Q13131); conditions: AMPK (hum); for % Activity inhibition Mean / % Activity inhibition Run 1 / % Activity inhibition Run 2 / % Activity remaining Run 1 / % Activity remaining Run 2: 10 µM
Procedure, shortened: as §1

[5] = target: 140 purified human kinases (Homo sapiens, UniProt P54764)
Procedure, shortened: as §1

[6] = target: 140 purified human kinases (Homo sapiens, UniProt P41240); conditions: CSK
Procedure, shortened: as §1

[7] = target: 140 purified human kinases (Homo sapiens, UniProt P16234); conditions: PDGFRA
Procedure, shortened: as §1

140 purified human kinases (Homo sapiens, UniProt P54764), sequence (P54764 20-986): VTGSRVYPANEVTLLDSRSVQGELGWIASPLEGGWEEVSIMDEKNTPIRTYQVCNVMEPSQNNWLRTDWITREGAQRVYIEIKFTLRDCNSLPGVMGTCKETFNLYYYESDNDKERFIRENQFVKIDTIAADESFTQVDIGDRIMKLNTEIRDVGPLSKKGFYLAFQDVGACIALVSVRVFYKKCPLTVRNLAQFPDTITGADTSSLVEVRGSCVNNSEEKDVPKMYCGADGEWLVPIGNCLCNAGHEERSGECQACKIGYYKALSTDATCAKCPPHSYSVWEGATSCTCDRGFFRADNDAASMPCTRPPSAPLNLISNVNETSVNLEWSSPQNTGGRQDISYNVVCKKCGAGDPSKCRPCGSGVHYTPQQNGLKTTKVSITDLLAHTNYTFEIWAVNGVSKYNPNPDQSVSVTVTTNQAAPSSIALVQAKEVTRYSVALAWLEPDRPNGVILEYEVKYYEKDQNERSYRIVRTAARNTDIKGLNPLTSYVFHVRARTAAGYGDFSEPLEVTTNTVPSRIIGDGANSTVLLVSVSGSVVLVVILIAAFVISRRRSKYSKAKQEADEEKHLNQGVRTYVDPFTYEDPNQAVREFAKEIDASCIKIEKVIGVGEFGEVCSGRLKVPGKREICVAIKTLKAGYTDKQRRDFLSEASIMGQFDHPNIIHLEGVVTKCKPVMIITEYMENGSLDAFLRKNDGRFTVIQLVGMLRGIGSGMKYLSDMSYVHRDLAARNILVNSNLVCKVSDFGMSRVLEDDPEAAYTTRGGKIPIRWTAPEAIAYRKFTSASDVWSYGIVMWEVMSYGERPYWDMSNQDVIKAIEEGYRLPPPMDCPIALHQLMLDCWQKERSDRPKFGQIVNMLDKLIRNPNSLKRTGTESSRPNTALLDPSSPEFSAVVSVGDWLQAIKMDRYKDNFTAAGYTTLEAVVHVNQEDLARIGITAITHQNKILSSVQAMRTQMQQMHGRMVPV
140 purified human kinases (Homo sapiens, UniProt P16234), sequence (P16234 24-1089): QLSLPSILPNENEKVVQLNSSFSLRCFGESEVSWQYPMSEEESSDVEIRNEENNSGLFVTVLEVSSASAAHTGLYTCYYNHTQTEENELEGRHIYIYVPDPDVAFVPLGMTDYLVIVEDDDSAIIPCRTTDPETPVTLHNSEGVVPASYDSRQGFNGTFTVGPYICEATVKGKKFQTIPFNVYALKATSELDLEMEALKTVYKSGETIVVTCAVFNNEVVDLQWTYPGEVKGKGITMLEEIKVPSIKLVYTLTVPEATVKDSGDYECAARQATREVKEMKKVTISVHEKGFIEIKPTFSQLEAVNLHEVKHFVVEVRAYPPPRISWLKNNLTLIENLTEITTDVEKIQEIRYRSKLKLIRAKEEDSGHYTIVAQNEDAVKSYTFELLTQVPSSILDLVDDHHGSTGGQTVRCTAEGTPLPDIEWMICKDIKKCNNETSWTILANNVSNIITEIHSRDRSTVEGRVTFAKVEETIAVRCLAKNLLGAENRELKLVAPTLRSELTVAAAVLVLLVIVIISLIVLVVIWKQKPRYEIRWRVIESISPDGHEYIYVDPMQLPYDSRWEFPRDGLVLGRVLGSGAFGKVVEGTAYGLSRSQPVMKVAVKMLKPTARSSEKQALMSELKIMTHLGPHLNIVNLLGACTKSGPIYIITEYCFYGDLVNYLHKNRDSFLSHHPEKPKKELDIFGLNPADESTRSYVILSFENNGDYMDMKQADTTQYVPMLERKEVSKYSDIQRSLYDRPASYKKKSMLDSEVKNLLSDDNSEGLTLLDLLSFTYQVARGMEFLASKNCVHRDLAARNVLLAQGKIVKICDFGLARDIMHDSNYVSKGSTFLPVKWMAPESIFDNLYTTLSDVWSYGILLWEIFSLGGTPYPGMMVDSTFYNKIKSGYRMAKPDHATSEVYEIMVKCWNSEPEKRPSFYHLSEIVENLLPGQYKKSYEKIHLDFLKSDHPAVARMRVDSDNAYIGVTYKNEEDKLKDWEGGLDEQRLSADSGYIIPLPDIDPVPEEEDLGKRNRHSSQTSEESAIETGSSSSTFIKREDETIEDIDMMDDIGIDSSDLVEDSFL
140 purified human kinases (Homo sapiens, UniProt Q13131), sequence (Q13131 whole entry): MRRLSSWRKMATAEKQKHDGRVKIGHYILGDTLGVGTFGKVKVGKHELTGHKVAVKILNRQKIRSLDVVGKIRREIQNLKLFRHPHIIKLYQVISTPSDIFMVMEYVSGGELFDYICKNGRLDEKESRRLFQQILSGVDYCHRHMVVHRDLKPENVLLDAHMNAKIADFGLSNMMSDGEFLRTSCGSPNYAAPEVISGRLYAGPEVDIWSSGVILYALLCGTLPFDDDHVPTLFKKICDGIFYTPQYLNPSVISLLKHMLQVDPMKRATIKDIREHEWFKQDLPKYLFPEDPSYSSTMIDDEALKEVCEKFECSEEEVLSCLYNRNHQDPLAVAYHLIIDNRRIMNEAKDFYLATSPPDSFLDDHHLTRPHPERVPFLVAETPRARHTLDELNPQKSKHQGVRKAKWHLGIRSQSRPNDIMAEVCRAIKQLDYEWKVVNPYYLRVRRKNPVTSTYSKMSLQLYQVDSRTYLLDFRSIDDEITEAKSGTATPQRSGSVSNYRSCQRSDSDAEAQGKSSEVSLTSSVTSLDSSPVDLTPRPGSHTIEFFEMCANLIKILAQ
140 purified human kinases (Homo sapiens, UniProt P41240), sequence (P41240 whole entry): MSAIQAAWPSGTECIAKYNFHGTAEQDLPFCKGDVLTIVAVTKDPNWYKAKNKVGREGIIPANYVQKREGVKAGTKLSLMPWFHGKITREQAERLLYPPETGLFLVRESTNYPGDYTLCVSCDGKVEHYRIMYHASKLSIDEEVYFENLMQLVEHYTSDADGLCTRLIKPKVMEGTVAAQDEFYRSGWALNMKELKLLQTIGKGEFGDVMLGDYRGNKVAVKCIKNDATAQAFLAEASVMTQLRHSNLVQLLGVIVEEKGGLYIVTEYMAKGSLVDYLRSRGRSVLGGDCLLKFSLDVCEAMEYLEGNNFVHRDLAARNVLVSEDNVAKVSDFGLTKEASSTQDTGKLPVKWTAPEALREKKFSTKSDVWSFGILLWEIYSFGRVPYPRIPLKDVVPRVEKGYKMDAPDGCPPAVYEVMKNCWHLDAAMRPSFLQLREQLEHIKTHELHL
140 purified human kinases (Homo sapiens, UniProt P14616), sequence (P14616 27-1297): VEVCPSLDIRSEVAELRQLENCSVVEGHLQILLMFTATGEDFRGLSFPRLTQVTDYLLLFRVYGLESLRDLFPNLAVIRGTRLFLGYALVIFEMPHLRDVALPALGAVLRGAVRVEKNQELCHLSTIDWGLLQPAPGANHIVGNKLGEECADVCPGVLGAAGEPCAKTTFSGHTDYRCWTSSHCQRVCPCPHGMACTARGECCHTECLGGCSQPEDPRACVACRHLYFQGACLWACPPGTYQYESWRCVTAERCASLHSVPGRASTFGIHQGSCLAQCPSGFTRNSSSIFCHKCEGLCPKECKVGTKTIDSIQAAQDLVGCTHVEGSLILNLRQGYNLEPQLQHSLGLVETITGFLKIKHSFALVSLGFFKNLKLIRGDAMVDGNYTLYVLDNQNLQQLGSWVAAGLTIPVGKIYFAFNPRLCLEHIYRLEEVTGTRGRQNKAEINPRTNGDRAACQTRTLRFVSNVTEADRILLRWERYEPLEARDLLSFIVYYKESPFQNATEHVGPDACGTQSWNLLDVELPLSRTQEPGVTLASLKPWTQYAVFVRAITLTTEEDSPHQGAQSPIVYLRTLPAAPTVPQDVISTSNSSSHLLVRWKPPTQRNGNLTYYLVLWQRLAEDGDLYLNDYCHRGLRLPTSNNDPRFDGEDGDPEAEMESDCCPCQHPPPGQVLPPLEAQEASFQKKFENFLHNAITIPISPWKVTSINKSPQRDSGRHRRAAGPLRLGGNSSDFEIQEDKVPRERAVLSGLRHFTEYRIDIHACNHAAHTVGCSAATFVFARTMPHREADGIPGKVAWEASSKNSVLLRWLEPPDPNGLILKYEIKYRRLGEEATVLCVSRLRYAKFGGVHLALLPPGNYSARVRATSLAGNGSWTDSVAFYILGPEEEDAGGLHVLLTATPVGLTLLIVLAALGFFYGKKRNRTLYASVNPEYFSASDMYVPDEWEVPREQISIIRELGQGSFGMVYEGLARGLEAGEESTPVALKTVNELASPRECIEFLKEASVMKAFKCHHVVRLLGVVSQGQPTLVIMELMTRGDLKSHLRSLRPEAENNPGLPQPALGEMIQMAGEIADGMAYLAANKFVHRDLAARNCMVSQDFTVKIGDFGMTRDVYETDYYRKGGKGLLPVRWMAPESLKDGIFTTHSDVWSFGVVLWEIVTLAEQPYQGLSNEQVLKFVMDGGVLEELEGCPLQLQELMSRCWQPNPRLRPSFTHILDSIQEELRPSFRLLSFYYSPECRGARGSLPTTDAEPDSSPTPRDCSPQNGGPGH

## [Cu+2].[Cu+2].[Cu+2].c1ccc(-c2csc(NCCN(CCNc3nc(-c4ccccn4)cs3)CCNc3nc(-c4ccccn4)cs3)n2)nc1.c1ccc(-c2csc(NCCN(CCNc3nc(-c4ccccn4)cs3)CCNc3nc(-c4ccccn4)cs3)n2)nc1 [[L2Cu3]6+]
[1]; EIF2AK3
  % Inhibition Run 1: 39.9%
  % Inhibition Run 2: 30.4%
  % Inhibition, Mean: 35%
  mean % activity: 65%
[1]; EIF2AK3, Run 1
  % activity: 60.1%
[1]; EIF2AK3, Run 2
  % activity: 69.6%
[2]; MKK6
  % Inhibition Run 1: 75.4%
  % Inhibition Run 2: 83.7%
  % Inhibition, Mean: 80%
  mean % activity: 20%
[2]; MKK6, Run 1
  % activity: 24.6%
[2]; MKK6, Run 2
  % activity: 16.3%
[3]
  % Inhibition Run 1: 26.1%
  % Inhibition Run 2: 42.9%
  % Inhibition, Mean: 35%
  mean % activity: 66%
[3]; Run 1
  % activity: 73.9%
[3]; Run 2
  % activity: 57.1%
[4]
  % Inhibition Run 1: 97.2%
  % Inhibition Run 2: 98.1%
  % Inhibition, Mean: 98%
  mean % activity: 2.35%
  % Activity inhibition Mean: 97.7%
  % Activity inhibition Run 1: 97.2%
  % Activity inhibition Run 2: 98.1%
  % Activity remaining Run 1: 2.80%
  % Activity remaining Run 2: 1.90%
[4]; Run 1
  % activity: 2.8%
[4]; Run 2
  % activity: 1.9%
[5]; EPH-A4
  % Inhibition Run 1: 4.5%
  % Inhibition Run 2: -3.1%
  % Inhibition, Mean: 0.7%
  mean % activity: 99%
[5]; EPH-A4, Run 1
  % activity: 95.5%
[5]; EPH-A4, Run 2
  % activity: 103.1%
[6]
  % Inhibition Run 1: 11.5%
  % Inhibition Run 2: 10.8%
  % Inhibition, Mean: 11%
  mean % activity: 89%
[6]; Run 1
  % activity: 88.5%
[6]; Run 2
  % activity: 89.2%
[7]
  % Activation, Mean value: 4.7%
  % Inhibition Run 1: 10.8%
  % Inhibition Run 2: -20.2%
  % Inhibition, Mean: -4.7%
  mean % activity: 105%
[7]; Run 1
  % activity: 89.2%
[7]; Run 2
  % activity: 120.2%

## CC(=O)[O-].CC(=O)[O-].CC(=O)[O-].CC(=O)[O-].CC(=O)[O-].CC(=O)[O-].[Zn+2].[Zn+2].[Zn+2].c1ccc(-c2csc(NCCN(CCNc3nc(-c4ccccn4)cs3)CCNc3nc(-c4ccccn4)cs3)n2)nc1.c1ccc(-c2csc(NCCN(CCNc3nc(-c4ccccn4)cs3)CCNc3nc(-c4ccccn4)cs3)n2)nc1 [[L2Zn3]6+]
[1]; EIF2AK3
  % Inhibition, Mean: 37%
  % Inhibition, Run 1 / Run 2: 45% and 29%
  mean % activity: 63%
[1]; EIF2AK3, duplicate runs
  % activity: 55% and 71%
[2]; MKK6
  % Inhibition, Mean: 48%
  % Inhibition, Run 1 / Run 2: 59% and 37%
  mean % activity: 52%
[2]; MKK6, duplicate runs
  % activity: 41% and 63%
[3]
  % Inhibition, Mean: 6.6%
  % Inhibition, Run 1 / Run 2: 2.4% and 11%
  mean % activity: 93%
[3]; duplicate runs
  % activity: 98% and 89%
[4]
  % Inhibition, Mean: 93%
  % Inhibition, Run 1 / Run 2: 94% and 92%
  mean % activity: 7%
  % Activity inhibition Mean: 93.0%
  % Activity inhibition Run 1: 94%
  % Activity inhibition Run 2: 92%
  % Activity remaining Run 1: 6%
  % Activity remaining Run 2: 8%
[4]; duplicate runs
  % activity: 6.4% and 8%
[5]; EPH-A4
  % Inhibition, Mean: 27%
  % Inhibition, Run 1 / Run 2: 30% and 25%
  mean % activity: 73%
[5]; EPH-A4, duplicate runs
  % activity: 70% and 75%
[6]
  % Inhibition, Mean: 8%
  mean % activity: 92%
[6]; duplicate runs
  % activity: 82% and 102%
[7]
  % Inhibition, Mean: 24%
  % Inhibition, Run 1 / Run 2: 27% and 22%
  mean % activity: 76%
[7]; duplicate runs
  % activity: 74% and 78%
